Experimental data: patent US11944604B1, “Nanoformulation of spriooxindole and methods for treating hepatocellular carcinoma” (KING SAUD UNIVERSITY, priority 2023, dated 2024)
Where two headings read alike, the source gives them in different places.

Key:
[1] = test system: CCl4-induced liver cancer; test: CCl4-induced liver cancer model: serum liver/kidney markers and H&E histopathology; format: in vivo, mice; design: GPT (ALT) / Creatinine / GOT (AST): unit not given here; settings: for Creatinine / GOT (AST) / GPT (ALT): serum, mean ± SD; for mitotic activity of liver cells (H&E): CCl4-treated mice
Procedure: (§1) An in vivo study was carried out in Male Balb/c mice, each weighing 15-25 g. All mice were purchased from Medical Experimental Research Center (MERC), Mansoura University, Egypt. Mice were acclimatized for one week in the new animal care facility, at the Zoology Department, Mansoura University, Egypt, under specific pathogen-free (SPF) conditions, and provided with conventional food and drinking water before the study. All animal experiments were carried out following the guidelines of the faculty of Science, Mansoura University, Egypt.
(§2) Twenty five mice were treated with carbon tetrachloride (CCl4, from LOBA Chemie Pvt Ltd, Mumbai, India, 1:5 in corn oil) twice weekly via IP injection for 24 weeks. After that period of time, mice were distributed evenly into 5 groups of 5 mice. Group 1 was treated with the solvent 10% DMSO; group 2 was treated with a low dose of compound 4d (50 mg/kg/daily) for 14 days; group 3 was treated with a high dose of compound 4d (200 mg/kg) for 6 hours; group 4 was treated with a high dose of compound 4d (200 mg/kg) for 24 hours; and group 5 was treated with a high dose of compound 4d (200 mg/kg) for 48 hours.
At the end of each treatment, all mice were sacrificed, and blood and liver were collected for evaluation. The liver samples were washed in ice cold 1× phosphate buffered saline (PBS), and fixed in 10% buffered formalin till examination.
(§3) The blood was centrifuged to collect serum or plasma for biochemical analysis. The blood chemistry was evaluated to detect the level of serum alanine aminotransferase (ALT), serum aspartate aminotransferase (liver function test), and serum creatinine (kidney function test). Complete blood count analysis was carried out to detect the effect of compound 4d treatment on blood platelet count, because it has been reported that p53-MDM2 inhibitors cause high grade thrombocytopenia (i.e., decreased numbers of platelets).
(§4) The formalin-fixed liver specimens were embedded in paraffin, and sections were taken and prepared for hematoxylin and Eosin (H&E) staining. The slides were examined for hepatic architecture, degenerative changes, inflammatory changes, hepatocytes necrosis, mitosis, dysplastic changes and malignant transformation. 4 μm thick sections were prepared on coated slides.
An in vivo model was carried out to test the efficacy of compound 4d in treatment of liver cancer by applying two regimens of compound 4d: a single dose of 200 mg/kg and the treated mice were sacrificed after 6, 24 or 48 hours; or a daily dose of 50 mg/kg for 14 days. Liver cancer was induced chemically by CCl4 (1:5 dilution in corn oil, twice per week). […] The liver architecture was disturbed and there were cirrhotic nodules with bridging fibrosis (FIG. 3A).

HepG2 = test: Anticancer potency and ligand efficiency scores, HepG2; format: cell-based; settings: Homo sapiens
Text: (§5) LE is used to measure the efficiency of compounds and determine binding affinity (in terms of binding energy or pIC50) in relation to the number of heavy atoms in a molecule. This provides a way to compare the affinity of molecules corrected for their size.
(§6) LE represents the ratio of the affinity of a ligand divided by the number of heavy (non-hydrogen) atoms in the molecule (LE=ΔG/[number of heavy atoms. LE can be calculated according to the following equation: LE=(plC50×1.37)/NHA • where: • IC50=half-maximal inhibitory concentration (in term of molar concentration). • NHA=non-hydrogen atom. The recommended LE value for lead-likeness should be in the range of 0.3. The acceptable LE value for drug-likeness should be higher than 0.3.
(§7) LLE can be calculated as follows: LLE=pIC50−C log P

p53 = test: Immunohistochemistry of p53 in liver sections of CCl4-treated mice; format: in vivo
Procedure: as §2
(§8) The sections were de-paraffinized in xylene, then rehydrated. Endogenous tissue peroxidase was blocked by incubating the slides for 5 minutes in 0.3% hydrogen peroxide. Antigen retrieval was done by heating the sections in citrate buffer, at pH 6.0, in a microwave. Then, the sections were incubated with monoclonal mouse p53 (clone DO-7, Dako, USA), rabbit polyclonal caspase 3 antibody (CPP32) Ab-4 (ThermoScientific), or with monoclonal mouse Ki-67 antigen (clone MIB-1, Dako, USA).
(§9) The slides were counterstained with hematoxylin and then dehydrated in alcohol and cleared xylene. The immunohistochemical and pathological changes were examined by light microscopy (binocular, Olympus). Images were taken using a digital camera (Canon, 5 mega pixels, at 3.2× optical zoom). […]

Male Balb/c mice = test: Safety / tolerated dose study of compound 4d in healthy mice (blood count, blood chemistry, histopathology); format: in vivo; settings: for Creatinine / GOT / GPT / Hb / Leukocytes / Platelets: mean ± SD
Procedure: as §1
The lethal dose of compound 4d was evaluated according to standard Dose-Probing Tests. Mice were divided into groups of three for evaluating the LD50. Each group received either a different concentration of compound 4d (ranging from 10 ng/Kg to 200 mg/Kg), in corn oil, or the solvent 10% DMSO in corn oil, by intraperitoneal (IP) injection.
The weight and physical symptoms of the mice were monitored for 14 days. After that, all groups were sacrificed, and the liver, kidney, heart, and spleen were collected for histological evaluation of the toxicity of compound 4d. Blood was collected from each mouse for evaluation of the effect of compound 4d on liver and kidney function.
as §3, §4
In order to evaluate the tolerated dose of compound 4d, mice were intraperitoneally injected with different doses, and physical symptoms were evaluated daily for 14 days. The maximum dose used was 200 mg/kg, because of the solubility limitation in DMSO. DMSO was adjusted to the tolerated dose 10% in corn oil.

caspase 3 = test: Immunohistochemistry of caspase 3 in liver sections of CCl4-treated mice; format: in vivo; settings: low dose daily for 14 days or high dose for 48 hours
Procedure: as §2, §8, §9

colon cancer cells = settings: cited from earlier work
[2] = test system: colon, liver and prostate cancer; settings: anticancer activity against colon; cited from earlier work
HCT-116 = test: Anticancer potency and ligand efficiency scores, HCT-116; format: cell-based; settings: Homo sapiens
Text: as §5, §6, §7

[3] = Lipophilicity (log K as surrogate for log P); format: physicochemical
Procedure: An LLE value≥3 for a lead compound is acceptable, and for a drug candidate LLE value ≥5 is recommended. To get more accurate results, log P was calculated practically, and Log K was measured as indicator and surrogate for log p.

Ki-67 = test: Immunohistochemistry of Ki-67 in hepatocytes of CCl4-treated mice; format: in vivo; settings: low (daily dose for 14 days) or high dose (single dose)
Procedure: as §2
The sections were de-paraffinized in xylene, then rehydrated. Endogenous tissue peroxidase was blocked by incubating the slides for 5 minutes in 0.3% hydrogen peroxide. Antigen retrieval was done by heating the sections in citrate buffer, at pH 6.0, in a microwave. […]
The statistical analysis was done using the software SPSS 19 for Microsoft Windows (SPSS Inc, Chicago, Illinois). A quantitative analysis of the number of hepatocytes with positive nuclear Ki-67 staining were tested using a one-way analysis of variance (ANOVA), with Duncan's multiple comparisons of the means to compare difference between means.
The level of proliferative Ki-67 marker was evaluated using immunohistochemistry. […]

PC-3 = test: Anticancer potency and ligand efficiency scores, PC-3; format: cell-based; settings: Homo sapiens
Text: as §5, §6, §7

[4] = healthy mice, IP, 50 mg/kg/14 d
[5] = healthy mice, IP, 200 mg/kg/24 hrs
[6] = healthy mice, IP, 200 mg/kg/48 hrs

O=C(/C=C/c1ccc(Cl)cc1Cl)[C@H]1[C@H](c2ccc(Cl)cc2Cl)[C@H]2CSCN2[C@]12C(=O)Nc1ccccc12 [Compound 4d, (3R,6′S,7′R,7a′S)-7′-(2,4-dichlorophenyl)-6′-((E)-3-(2,4-dichlorophenyl)acryloyl)-1′,6′,7′,7a′-tetrahydro-3′H-spiro[indoline-3,5′-pyrrolo[1,2-c]thiazol]-2-one]
Creatinine ([1]; CCl4 + 50 mg/kg/14 d): 0.4120 ± 0.2
GOT (AST) ([1]; CCl4 + 50 mg/kg/14 d): 449.20 ± 109.2
GPT (ALT) ([1]; CCl4 + 50 mg/kg/14 d): 2028.6 ± 168
Creatinine ([1]; CCl4 + 200 mg/kg/6 hrs): 0.4560 ± 0.1823
GOT (AST) ([1]; CCl4 + 200 mg/kg/6 hrs): 3419.00 ± 130.5
GPT (ALT) ([1]; CCl4 + 200 mg/kg/6 hrs): 3430.4 ± 137.48
Creatinine ([1]; CCl4 + 200 mg/kg/24 hrs): 0.4860 ± 0.17
GOT (AST) ([1]; CCl4 + 200 mg/kg/24 hrs): 1161.00 ± 108.5
GPT (ALT) ([1]; CCl4 + 200 mg/kg/24 hrs): 2209.0 ± 132.8
Creatinine ([1]; CCl4 + 200 mg/kg/48 hrs): 0.4660 ± 0.16
GOT (AST) ([1]; CCl4 + 200 mg/kg/48 hrs): 208.40 ± 9.32
GPT (ALT) ([1]; CCl4 + 200 mg/kg/48 hrs): 961.6 ± 15.96
mitotic activity of liver cells (H&E) ([1]; daily dose of 50 mg/kg for 14 days): no mitotic activity
mitotic activity of liver cells (H&E) ([1]; single dose of 200 mg/kg, after 6 hours): 1 /10 H.P.F.
mitotic activity of liver cells (H&E) ([1]; single dose of 200 mg/kg, longer incubation (24 hours)): 1 /10 H.P.F.
mitotic activity of liver cells (H&E) ([1]; single dose of 200 mg/kg, two days (48 hours)): 2 /10 H.P.F.
IC50 (HepG2; read-out: HepG2 (unnamed value under the cell line head)): 850 nM
IC50 (HepG2; read-out: IC50 (converted)): 851 nM
level of p53 in liver sections (p53; daily dose of 50 mg/kg for 14 days, versus mice only treated with CCl4): higher levels of detected p53
activation of p53 in liver sections (p53; single dose of 200 mg/kg for 6, 24 or 48 hours): time-dependent activation of p53
change in the behavior, feeding or drinking of the mice (Male Balb/c mice; IP, doses up to 200 mg/kg, observed daily for 14 days): did not cause any change
Creatinine (Male Balb/c mice; [4]): 0.49 ± 0.21
GOT (Male Balb/c mice; [4]): 281.0 ± 231.9
GPT (Male Balb/c mice; [4]): 486.6 ± 339.9
Hb (Male Balb/c mice; [4]): 10.16 ± 1.1
Leukocytes (Male Balb/c mice; [4]): 12.5 ± 6.9
Platelets (Male Balb/c mice; [4]): 433.0 ± 304.6
Creatinine (Male Balb/c mice; [5]): 0.67 ± 0.24
GOT (Male Balb/c mice; [5]): 129.6 ± 56.5
GPT (Male Balb/c mice; [5]): 498.0 ± 228.8
Hb (Male Balb/c mice; [5]): 10.1 ± 1.43
Leukocytes (Male Balb/c mice; [5]): 10.6 ± 6.9
Platelets (Male Balb/c mice; [5]): 519 ± 302.9
Creatinine (Male Balb/c mice; [6]): 0.692 ± 0.567
GOT (Male Balb/c mice; [6]): 145.7 ± 198.9
GPT (Male Balb/c mice; [6]): 368.0 ± 208.1
Hb (Male Balb/c mice; [6]): 10.4 ± 1.78
Leukocytes (Male Balb/c mice; [6]): 13.6 ± 6.4
Platelets (Male Balb/c mice; [6]): 407.0 ± 281.6
pathological alteration in kidney, heart or spleen (Male Balb/c mice; healthy mice, histopathology): did not cause any pathological alteration
platelet count (complete blood count) (Male Balb/c mice; healthy mice, in words): no aberrant or significant change
liver architecture, hematoxylin and eosin staining (Male Balb/c mice; healthy mice, treatment for 14 days): normal liver architecture without any degenerative changes
level of caspase 3 in liver sections (caspase 3): induced the activation of caspase 3
apoptosis (Bcl-2 inhibition, Bax activation) (colon cancer cells): induction of apoptosis
colony formation and wound healing (colon cancer cells; treated colon cancer cells): inhibited colony formation, and wound healing
p21 gene expression (colon cancer cells; treated colon cancer cells): overexpression of cell cycle inhibitor p21 gene
p53 activation (colon cancer cells; treated colon cancer cells): activation of p53
selectivity index [2]: greater than 2
IC50 (HCT-116; read-out: HCT-116 (unnamed value under the cell line head)): 2000 nM
IC50 (HCT-116; read-out: pIC50 (converted)): 2040 nM
log K [3]: 1.19
number of Ki-67 nuclear stained hepatocytes (Ki-67): significantly increased
IC50 (PC-3; read-out: PC-3 (unnamed value under the cell line head)): 1800 nM
IC50 (PC-3; read-out: pIC50 (converted)): 1820 nM
